From publication PMC9000499, “New Triazolyl N^N Bidentate Rh(III), Ir(III), Ru(II) and Os(II) Complexes: Synthesis and Characterization, Probing Possible Relations between Cytotoxicity with Transfer Hydrogenation Efficacy and Interaction with Model Biomolecules” (Molecules, 2022) come the findings set out here.

The subject of data set [1] is cervical cancer cells (Hela). Kind of data set: MTS in vitro cytotoxicity assay, Hela. Type of data set: cell-based. As to conditions: 96 h exposure, mean ± SD n = 6. An excerpt: (§1) The absorbance is directly proportional to cell viability.
The test system of data set [2] is cancer cells (HeLa, HEK293, A549, MT4). As to conditions: summary over the selected cancer cell lines, MTS assay; for EC50: read-out: EC50 against the cancer cells. As for the experimental part:
(§2) An MTS (3-(4,5-dimethylthiazol-2-yl)-5-(3-carboxymethoxy-phenyl)-2-(4-sulfophenyl)-2H-tetrazolium) in vitro cytotoxicity assay was conducted to determine change in cell viability using a colour change. The MTS compound (yellow) is metabolised by viable cells to form a dark purple coloured compound, visible through UV-Vis spectroscopy at 490 nm. The absorbance is directly proportional to cell viability. Samples were tested across three plates in duplicate (n = 6), and the average value was reported.
(§3) HeLa (cervical cancer cells), Hek293 (kidney cancer cells), BHK21 (normal kidney cells), MT4 (lymphoma cells) and A549 (lung cancer cells) were grown using standard tissue culture techniques. The cells (1 × 10^5 cells/mL) were incubated in 96-well plates at 37 °C overnight, with the subsequent addition of the supplied compounds, at concentrations (100 µg/mL, 50.0 µg/mL, 25.0 µg/mL, 12.5 µg/mL, 6.25 µg/mL, 3.125 µg/mL and 0 µg/mL). The cells were left to incubate for four days, after which MTS (5 µL) was added to the cells. The absorbance values were measured at 490 nm after 1 h, 2 h and 4 h incubation periods, averaged, and the viability curves were drawn up.

Data set [3] is described as follows: MTS in vitro cytotoxicity assay, HEK293. As to conditions: MTS assay, 96 h exposure, mean ± SD n = 6. Type of data set: cell-based.
Source text: as §1

The subject of data set [4] is lung cancer cells (A549). Description: MTS in vitro cytotoxicity assay, A549. Type of data set: cell-based. As to conditions: 96 h exposure, mean ± SD n = 6.
Source text: as §1

Data set [5] relates to normal kidney cells (BHK21). Description: MTS in vitro cytotoxicity assay, BHK21. The data set is classed as cell-based. As to conditions: 96 h exposure, mean ± SD n = 6.
Source text: as §1

Assay in data set [6]: not given
The source holds these as a separate data set.

The subject of data set [7] is Lymphoma cells (MT4). Kind of data set: MTS in vitro cytotoxicity assay, MT4. The data set is classed as cell-based. As to conditions: 96 h exposure, mean ± SD n = 6.
Source text: as §1

Data set [8] concerns all the tested cell lines (Hela, HEK293, BHK21, MT4, A549). As to conditions: summary over all tested cell lines, MTS assay. As for the experimental part: as §2, §3
For data set [9] the following is noted: qualitative, aqueous model system / PBS.
The mark [10] stands for this setting: base: None, 1 mol% catalyst, 2.0 equiv. sodium formate, PBS pH 7.4, 310 K, 24 h.
Setting [11] is: base: NaHCO3 1.0 equiv., PBS pH 7.4, 310 K, 24 h.
Where [12] appears, read: base: None, 2.0 equiv. halide abstractor AgBF4 added, PBS pH 7.4, 310 K, 24 h.
Setting [13] is: percentage of lactate formed, base: NaHCO3 1.0 equiv., PBS pH 7.4, 310 K, 24 h.
Where [14] appears, read: percentage of lactate formed, base: None, 2.0 equiv. AgBF4 added, PBS pH 7.4, 310 K, 24 h.
The mark [15] stands for this setting: percentage of lactate formed, base: None, PBS pH 7.4, 310 K, 24 h.

SMILES strings stand for the structures. Where “and” joins values, the source holds several entries; their conditions need not be identical. Equal values may be shown once. Read-outs that look alike come from different tables or passages of the source.

Take `Cc1c(C)c(C)[c-](C)c1C.F[B-](F)(F)F.[Cl-].[Ir+3].c1ccc(Cn2cc(-c3ccccn3)nn2)nc1` [Complex C11, [Chlorido(2-((4-(pyridine-2-yl)-(3-κN)-1,2,3-trizol-1-yl)methyl)-(2′-κN)-pyridine)(η^6-pentamethylcypentadiene)iridium(III)] tetrafluoroborate]: the EC50 in [1] was 2.5 ± 1 µM; in data set [2] it was < 5 µM; in data set [3] it was > 500 µM; in data set [4], > 500 µM; in data set [7], 111 ± 7 µM. Besides, the “Conversion (%)” value under setting [10] amounted to 70 ± 5%. Moreover, the “EC50 BHK21” value in [5] is “non-toxic and completely inactive and N.R”. Also, the “Time with no detectable changes in the 1H NMR spectra (stability)” value (shortened to “Time with no detectable changes”) in data set [6] (pH 7.4) is given as “over 72 h”.
On to `Cc1ccc(C(C)C)cc1.F[B-](F)(F)F.[Cl-].[Os+2].c1ccc(Cn2cc(-c3ccccn3)nn2)nc1` [Complex C8, [Chlorido(2-((4-(pyridine-2-yl)-(3-κN)-1,2,3-trizol-1-yl)methyl)-(2′-κN)-pyridine)(η^6-p-cymene)osmium(II)] tetrafluoroborate], for which, in data set [1], the “EC50 Hela” value is listed as “N.R”. The “EC50 / activity against all the tested cell lines” value in [8] was “not active”. The concentration for a half-maximal effect (EC50) in data set [3], in [4] and in data set [5] was > 500 µM each time. The “EC50 MT4” value in data set [7] was “N.R”.
`Cc1ccc(C(C)C)cc1.[Cl-].[Ru+2].c1ccc(Cn2cc(-c3ccccn3)nn2)nc1.c1ccc([B-](c2ccccc2)(c2ccccc2)c2ccccc2)cc1` [Complex C7, [Chlorido(2-((4-(pyridine-2-yl)-(3-κN)-1,2,3-trizol-1-yl)methyl)-(2′-κN)-pyridine)(η^6-p-cymene)ruthenium(II)] tetraphenylborate]: the 50% effective concentration (EC50) in [1] amounted to 26 ± 0.8 µM; in data set [3], 17 ± 4.8 µM; in data set [4] it was 53 ± 6 µM; in data set [5] it was 67 ± 7.3 µM; in data set [7], 20 ± 4.8 µM. In [9], the “Solubility in aqueous model system” value is on record as “poorly soluble”.
With `Cc1c(C)c(C)[c-](C)c1C.F[B-](F)(F)F.[Cl-].[Rh+3].c1ccc(Cn2cc(-c3ccccn3)nn2)cc1` [Complex C4, [Chlorido(2-(1-benzyl-(3-κN)-1,2,3-triazol-4-yl)-(2′-κN)-pyridine)(η^6-pentamethylcypentadiene)rhodium(III)] tetrafluoroborate], the EC50 was ≥ 300 µM in data set [1]; > 500 µM in [3]; > 500 µM in data set [4]; > 500 µM in [5]; 60 ± 8 µM in data set [7].
As to `Cc1c(C)c(C)[c-](C)c1C.F[B-](F)(F)F.[Cl-].[Ir+3].c1ccc(Cn2cc(-c3ccccn3)nn2)cc1` [Complex C5, [Chlorido(2-(1-benzyl-(3-κN)-1,2,3-triazol-4-yl)-(2′-κN)-pyridine)(η^6-pentamethylcypentadiene)iridium(III)] tetrafluoroborate], the EC50 in data set [1] is > 500 µM; in [3], > 500 µM; in [4], > 500 µM; in data set [5], 55 ± 1 µM; in [7] it was 67 ± 6 µM. For the same compound, the “Conversion (%)” value is, setting by setting: under setting [11], 0.1 ± 0.02%; under setting [12], 20 ± 3%; under setting [10], 14 ± 2%. In addition, the TON is, setting by setting: under setting [11], ≤0.1; under setting [12], 20; under setting [10], 14. In addition, the “Selectivity (%)” value under setting [13] is given as 100%, the “Selectivity (%)” value under setting [14] is recorded as >99% and the “Selectivity (%)” value under setting [15] is 100%. Also, under “summary, base condition not specified”, the “Conversion of pyruvate to lactate” value was < 14%. In addition, in [5], the “EC50 BHK21” value was “low cytotoxicities”. For the same compound, the “Time with no detectable changes” value in data set [6] (pH 7.4) is “over 72 h”.
For the compound `Cc1ccc(C(C)C)cc1.[Cl-].[Ru+2].c1ccc(Cn2cc(-c3ccccn3)nn2)cc1.c1ccc([B-](c2ccccc2)(c2ccccc2)c2ccccc2)cc1` [Complex C2, [Chlorido(2-(1-benzyl-(3-κN)-1,2,3-triazol-4-yl)-(2′-κN)-pyridine)(η^6-p-cymene)ruthenium(II)] tetraphenylborate], the 50% effective concentration (EC50) in [1] was 15 ± 1.7 µM; in data set [2], 9 to 16 µM and ≤ 16 µM; in data set [3], 11 ± 1.5 µM; in data set [4] it was 14 ± 4 µM; in data set [5] it was 151 ± 0.6 µM; in data set [7], 9 ± 1 µM. Also, the “Solubility in aqueous model system” value in data set [9] is recorded as “poorly soluble”. Besides, the “EC50 BHK21” value in [5] was “low cytotoxicities”.
As to `Cc1ccc(C(C)C)cc1.F[B-](F)(F)F.[Cl-].[Ru+2].c1ccc(Cn2cc(-c3ccccn3)nn2)cc1` [Complex C1, [Chlorido(2-(1-benzyl-(3-κN)-1,2,3-triazol-4-yl)-(2′-κN)-pyridine)(η^6-p-cymene)ruthenium(II)] tetrafluoroborate], the concentration for a half-maximal effect (EC50) in data set [1] is > 500 µM; in [3] it was > 500 µM; in data set [4] it was > 500 µM; in data set [5], 113 ± 17 µM; in [7] it was 37 ± 5 µM. Further, under “pH 7.4”, the “Selectivity (%)” value was 100% and >99%. Besides, in data set [5], the “EC50 BHK21” value was “low cytotoxicities”. The “Time with no detectable changes” value in data set [6] (10% DMSO-d6 in phosphate-buffered D2O (pH 7.4), 37 °C) is reported as “over 72 h”.
As for `Cc1ccc(C(C)C)cc1.F[B-](F)(F)F.[Cl-].[Os+2].c1ccc(Cn2cc(-c3ccccn3)nn2)cc1` [Complex C3, [Chlorido(2-(1-benzyl-(3-κN)-1,2,3-triazol-4-yl)-(2′-κN)-pyridine)(η^6-p-cymene)osmium(II)] tetrafluoroborate], the EC50 in data set [1] was > 500 µM; in [3], > 500 µM; in data set [4], > 500 µM; in data set [5], > 500 µM; in data set [7], 133 ± 12 µM. The “Conversion (%)” value under setting [11] amounted to 0.1 ± 0.03%, the “Conversion (%)” value under setting [12] amounted to 3 ± 1% and the “Conversion (%)” value under setting [10] is listed as 1 ± 0.3%. Further, the “Selectivity (%)” value runs as follows: under setting [13], 100%; under setting [14], >99%; under setting [15], 100%.
With `CC(=O)OC[C@H]1O[C@@H]([S-])[C@H](OC(C)=O)[C@@H](OC(C)=O)[C@@H]1OC(C)=O.CCP(CC)CC.[Au+]` [Auranofin, reference compound], the EC50 was < 2 µM in data set [1]; < 0.1 µM in [3]; 12 ± 2 µM in [4]; < 0.1 µM in data set [5]; < 2 µM in data set [7].
Consider `Cc1ccc(C(C)C)cc1.F[B-](F)(F)F.[Cl-].[Ru+2].c1ccc(Cn2cc(-c3ccccn3)nn2)nc1` [Complex C6, [Chlorido(2-((4-(pyridine-2-yl)-(3-κN)-1,2,3-trizol-1-yl)methyl)-(2′-κN)-pyridine)(η^6-p-cymene)ruthenium(II)] tetrafluoroborate], for which the EC50 in data set [1] was 388 ± 70.9 µM; in [3] it was > 500 µM; in data set [7] it was 158 ± 44.2 µM. For the same compound, the “EC50 against the cancer cells” value in data set [2] was “completely inactive against most cancer cells”. For the same compound, the “EC50 A549” value in data set [4] is on record as “N.R”. The “EC50 BHK21” value in [5] was “N.R”.
Turning to `Cc1c(C)c(C)[c-](C)c1C.F[B-](F)(F)F.[Cl-].[Rh+3].c1ccc(Cn2cc(-c3ccccn3)nn2)nc1` [Complex C10, [Chlorido(2-((4-(pyridine-2-yl)-(3-κN)-1,2,3-trizol-1-yl)methyl)-(2′-κN)-pyridine)(η^6-pentamethylcypentadiene)rhodium(III)] tetrafluoroborate], the “EC50 Hela” value in data set [1] was “N.R”. The EC50 in data set [3] and in [7] was > 500 µM in each case. Besides, the “EC50 A549” value in [4] is “N.R”. Besides, in data set [5], the “EC50 BHK21” value is listed as “N.R”.
